Laboratory results reported in publication PMC9435431, “Novel chemical entities inhibiting Mycobacterium tuberculosis growth identified by phenotypic high-throughput screening” (Scientific Reports, 2022).
Values after ≈ are worked out from the molar mass of the structure shown. Like-named read-outs stand apart in the source and are kept apart here.

Legend:
M. tuberculosis H37Rv = assay: microbe, parasite or virus in culture; format: cell-based; details: Mycobacterium tuberculosis, 120 h
[1] = test system: wild-type M. tuberculosis; assay: microbe, parasite or virus in culture; format: cell-based, Mycobacterium tuberculosis; details: for MIC / IC90: Mycobacterium tuberculosis
in vitro [2] = format: cell-based; details: human; for IC20: concentration for 20% inhibition of HepG2 cells, 72 h, n = 2
Experimental: HepG2 cells were seeded at 2000 cells per well in 384-well, black, clear bottom PDL coated plates in MEM medium supplemented with 10% FBS, 2 mM L-glutamine, 1 mM sodium pyruvate and incubated overnight at 37C, 5% CO2. Compounds were added and plates incubated for 72 h. Cell viability was measured using the CyQUANT® reagent and imaging on a ViewLux™ ultraHTS Microplate Imager. The IC20 and IC50 were calculated from dose response curves.

in vitro [3] = format: in vitro ADME, human; details: for microsomal clearance / stability (in words): human microsomes; for CLint scaled at 0.5 µM: human, microsomes, pH 7.4, human Clint
Experimental: Compounds (0.5 µM) were incubated with 0.25 mg/mL liver microsomal proteins at pH 7.4 at 37 °C. Reactions were initiated with […] and samples taken at 0, 5, 10, 15, 20 and 30 min. The reaction was stopped by addition of 95% ACN/5% MeOH containing an internal standard. Samples were combined in compound groups of six pre-sorted by mono molecular weight and analyzed by LC/MS/MS. The peak area ratios (analyte peak area/IS peak area) were converted to % remaining using the area ratio at time 0 as 100%. The. half-life (T ½) and intrinsic clearance (mCLint) were calculated.

[4] = Table 5, read-out: Wild-type MIC

| SMILES | inhibition at 20 µM (M. tuberculosis H37Rv; read-out: % Inhibition Run 1) | inhibition at 20 µM (M. tuberculosis H37Rv; read-out: % Inhibition Run 2) | MIC ([1]; read-out: MTB MIC) | IC20 at 72 h (in vitro [2]) | MIC ([1]; 120 h, read-out: MIC) | microsomal clearance / stability (in words) (in vitro [3]) | CLint scaled at 0.5 µM (in vitro [3]) | further results |
| --- | --- | --- | --- | --- | --- | --- | --- | --- |
| c1ccc(-c2cncc(N3CC4CC5CC3CN(C5)C4)c2)cc1 (centres unmarked) [AAP] | 99% | 97% |  |  |  |  |  | MIC ([1]; 120 h, read-out: MTB MIC): 23 µM (≈ 7.02 µg/mL); IC20 (in vitro [2]): 27 µM |
| CC(=O)n1cc(Nc2ccccc2O)c2ccccc21 [ACI-2] | 100% | 100% | 4.5 µM (≈ 1.2 µg/mL) | 30 µM |  |  |  |  |
| O=C(c1c(Cl)cccc1Cl)N1COCN(c2ccc(C(F)(F)F)cc2)C1=O [ACU-1] | 98% | 98% | 7.6 µM (≈ 3.19 µg/mL) | 65 µM |  |  |  |  |
| c1ccc(N2CCN(Cc3cnc4ccccc4n3)CC2)cc1 [AMQ-5] | 98% | 99% | 7.8 µM (≈ 2.37 µg/mL) | 2 µM |  |  |  |  |
| Clc1ccc(-c2nc(Cn3ccnc3)cs2)cc1 [AMT-1] | 98% | 96% | 35 µM (≈ 9.65 µg/mL) | 34 µM |  |  |  |  |
| CNc1cc(-c2ccccn2)nc(-c2ccccn2)n1 [APDP-1] | 99% | 100% | 10 µM (≈ 2.63 µg/mL) | 0.028 µM |  |  |  | IC90 [1]: 10 µM |
| O=S(=O)(Nc1ccccc1-c1nn[nH]n1)c1ccc(OC(F)(F)F)cc1 [APT] | 99% | 99% | 6.9 µM (≈ 2.66 µg/mL) | 0.47 µM |  |  |  |  |
| N#C/C(=C\NC1CCCCC1)c1nc2ccccc2[nH]1 [BCI-2] | 100% | 100% | 9.6 µM (≈ 2.56 µg/mL) | 0.85 µM |  |  |  |  |
| CCC(=O)Nc1nc(-c2nc3ccccc3oc2=O)cs1 [BOZ] | 99% | 100% | 4.8 µM (≈ 1.45 µg/mL) | 37 µM |  |  |  |  |
| Cc1cnc(-n2nnc3ccccc3c2=O)s1 [BTT] | 100% | 100% | 4.8 µM (≈ 1.17 µg/mL) | 37 µM |  |  |  |  |
| Nc1ccnc(Nc2ccccc2Nc2ccccc2)n1 [DAP] | 99% | 99% | 0.7 µM (≈ 0.194 µg/mL) | 0.83 µM |  |  |  |  |
| NCC(c1ccco1)S(=O)(=O)c1ccccc1 (centres unmarked) [FAS] | 100% | 100% | 9.5 µM (≈ 2.39 µg/mL) | 2 µM |  |  |  |  |
| O=C(Nc1nc2ccccc2s1)NC1C2CC3CC(C2)CC1C3 (centres unmarked) [HBU-1] | 100% | 100% |  | 8.2 µM |  |  |  | IC90 [1]: 4.2 µM; MIC ([1]; 120 h, read-out: MTB MIC): 4.2 µM (≈ 1.38 µg/mL) |
| CNC(=O)N(O)C1c2cccc(F)c2Oc2ccsc21 (centres unmarked) [HDU-2] | 99% | 100% | 19 µM (≈ 5.59 µg/mL) | 42 µM |  |  |  |  |
| CCC1(N2CCC(c3ccccc3)CC2)CCCCC1 [Molecule 4PP-1, 1-(1-Ethyl-cyclohexyl)-4-phenyl-piperidine] | 100% | 99% | 6.3 µM (≈ 1.71 µg/mL) |  | 6.3 ± 2.7 µM (≈ 1.71 µg/mL) |  |  | IC90 [1]: 6.3 µM; MIC [1, 4]: 6.3 µM (≈ 1.71 µg/mL); MIC ([1]; read-out: MIC): 6.3 µM (≈ 1.71 µg/mL); IC20 (in vitro [2]): > 80 µM |
| O=C(NCC(O)c1ccc2c(c1)OCO2)C1(c2ccccc2)CCC1 (centres unmarked) [PCB-11, N-(2-(benzo[d][1,3]dioxol-5-yl)-2-hydroxyethyl)-1-phenylcyclobutane-1-carboxamide] |  |  |  |  | > 20 µM | lower clearance | 161 mL/min/kg | MIC ([1]; read-out: MIC): > 20 µM |
| O=C(CNC(=O)C1(c2ccccc2)CCC1)c1cccc(Br)c1 [PCB-12, N-(2-(3-bromophenyl)-2-oxoethyl)-1-phenylcyclobutane-1-carboxamide] |  |  |  |  | 7.3 ± 0.3 µM (≈ 2.72 µg/mL) | did not improve clearance | 788 mL/min/kg | anti-tubercular activity (in words) [1]: tolerated |

| SMILES | inhibition at 20 µM (M. tuberculosis H37Rv; read-out: % Inhibition Run 1) | inhibition at 20 µM (M. tuberculosis H37Rv; read-out: % Inhibition Run 2) | MIC ([1]; read-out: MTB MIC) | IC20 at 72 h (in vitro [2]) | MIC ([1]; 120 h, read-out: MIC) | microsomal clearance / stability (in words) (in vitro [3]) | CLint scaled at 0.5 µM (in vitro [3]) | further results |
| --- | --- | --- | --- | --- | --- | --- | --- | --- |
| Brc1cccc(-c2nc(C3(c4ccccc4)CCC3)no2)c1 [PCB-13, 5-(3-bromophenyl)-3-(1-phenylcyclobutyl)-1,2,4-oxadiazole] |  |  |  |  | > 20 µM | high clearance | 4430 mL/min/kg | anti-tubercular activity (in words) [1]: loss of activity |
| CN(CCc1cccc(Br)c1)C(=O)C1(c2ccccc2)CCC1 [PCB-14, N-(3-bromophenethyl)-N-methyl-1-phenylcyclobutane-1-carboxamide] |  |  |  |  | > 20 µM | highly metabolized | 7450 mL/min/kg | anti-tubercular activity (in words) [1]: inactive |
| O=C(NCCc1cccc(Br)c1)C1(c2ccc(Cl)cc2)CCC1 [PCB-15, N-(3-bromophenethyl)-1-(4-chlorophenyl)cyclobutane-1-carboxamide] |  |  |  |  | 9.7 ± 6.7 µM (≈ 3.81 µg/mL) | clearances increased | 9320 mL/min/kg | anti-tubercular activity (in words) [1]: slight reduction |
| O=C(NCCc1cccc(Br)c1)C1(c2cccc(Cl)c2)CCC1 [PCB-16, N-(3-bromophenethyl)-1-(3-chlorophenyl)cyclobutane-1-carboxamide] |  |  |  |  | 5 ± 1.6 µM (≈ 1.96 µg/mL) | clearances increased | 9200 mL/min/kg | anti-tubercular activity (in words) [1]: little change; MIC [1, 4]: 5 µM (≈ 1.96 µg/mL) |
| O=C(NCCc1cccc(Br)c1)C1(c2ccccc2Cl)CCC1 [PCB-17, N-(3-bromophenethyl)-1-(2-chlorophenyl)cyclobutane-1-carboxamide] |  |  |  |  | 1.8 ± 0.7 µM (≈ 0.707 µg/mL) | clearances increased | 11200 mL/min/kg | anti-tubercular activity (in words) [1]: increase in activity; MIC [1, 4]: 1.8 µM (≈ 0.707 µg/mL) |
| O=C(NCCc1cccc(Br)c1)C1(c2ccc(Cl)cc2Cl)CCC1 [PCB-18, N-(3-bromophenethyl)-1-(2,4-dichlorophenyl)cyclobutane-1-carboxamide] |  |  |  |  | 13 ± 5 µM (≈ 5.55 µg/mL) | very low stability | 28200 mL/min/kg | anti-tubercular activity (in words) [1]: low antitubercular activity |
| O=C(NCCc1cccc(Br)c1)C1(c2ccccc2F)CCC1 [PCB-20, N-(3-bromophenethyl)-1-(2-fluorophenyl)cyclobutane-1-carboxamide] |  |  |  |  | 5.5 ± 2.1 µM (≈ 2.07 µg/mL) | very poor microsomal stability | 4380 mL/min/kg |  |
| O=C(NCCc1cccc(Br)c1)C1(c2ccccc2C(F)(F)F)CCC1 [PCB-22, N-(3-bromophenethyl)-1-(2-(trifluoromethyl)phenyl)cyclobutane-1-carboxamide] |  |  |  |  | 5.7 ± 2.8 µM (≈ 2.43 µg/mL) |  | 16300 mL/min/kg |  |
| Cc1ccccc1C1(C(=O)NCCc2cccc(Br)c2)CCC1 [PCB-23, N-(3-bromophenethyl)-1-(o-tolyl)cyclobutane-1-carboxamide] |  |  |  |  | 1.3 ± 0.5 µM (≈ 0.484 µg/mL) |  | 6520 mL/min/kg | MIC [1, 4]: 1.3 µM (≈ 0.484 µg/mL); MIC ([1]; read-out: MIC): 1.3 µM (≈ 0.484 µg/mL) |
| O=C(NCCc1cccc(Br)c1)C1(c2ccccc2)CC(F)(F)C1 [PCB-24, N-(3-bromophenethyl)-3,3-difluoro-1-phenylcyclobutane-1-carboxamide] |  |  |  |  | 15 ± 3.7 µM (≈ 5.91 µg/mL) | poor microsomal stability | 4380 mL/min/kg | MIC ([1]; read-out: MIC): 15 µM (≈ 5.91 µg/mL) |
| O=C(NCCc1cccc(Br)c1)C1(c2ccccc2)COC1 [PCB-25, N-(3-bromophenethyl)-3-phenyloxetane-3-carboxamide] |  |  |  |  | 12 ± 2.8 µM (≈ 4.32 µg/mL) | some improvement in clearance | 333 mL/min/kg | MIC ([1]; read-out: MIC): 12 µM (≈ 4.32 µg/mL) |
| COc1ccc(CCNC(=O)C2(c3ccc(F)cc3)CCC2)cc1Br [PCB-26, N-(3-bromo-4-methoxyphenethyl)-1-(4-fluorophenyl)cyclobutane-1-carboxamide] |  |  |  |  | 2.8 ± 0.1 µM (≈ 1.14 µg/mL) | at the expense of clearance | 2480 mL/min/kg | MIC ([1]; read-out: MIC): 2.8 µM (≈ 1.14 µg/mL) |
| COc1ccc(CCNC(=O)C2(c3ccccc3Cl)CCC2)cc1-c1ccccc1 [PCB-27, 1-(2-chlorophenyl)-N-(2-(6-methoxy-[1,1'-biphenyl]-3-yl)ethyl)cyclobutane-1-carboxamide] |  |  |  |  | 3.6 ± 1.3 µM (≈ 1.51 µg/mL) | much higher clearance | 28000 mL/min/kg |  |
| O=C(NCCc1cccc(C(F)(F)F)c1)C1(c2ccccc2)COC1 [PCB-28, 3-phenyl-N-(3-(trifluoromethyl)phenethyl)oxetane-3-carboxamide] |  |  |  |  | 9.1 ± 0.8 µM (≈ 3.18 µg/mL) | improved clearance | 232 mL/min/kg | anti-tubercular activity (in words) [1]: loss in activity |
| Cc1ccccc1C1(C(=O)NCCc2cccc(C(F)(F)F)c2)CCC1 [PCB-29, 1-(o-tolyl)-N-(3-(trifluoromethyl)phenethyl)cyclobutane-1-carboxamide] |  |  |  |  | 0.45 ± 0.01 µM (≈ 0.163 µg/mL) | increase in clearance | 14700 mL/min/kg | MIC ([1]; read-out: MIC): 0.45 µM (≈ 0.163 µg/mL) |
| O=C(NCCc1cccc(C(F)(F)F)c1)C1(c2ccc(F)cc2)CCC1 [PCB-30, 1-(4-fluorophenyl)-N-(3-(trifluoromethyl)phenethyl)cyclobutane-1-carboxamide] |  |  |  |  | 0.99 ± 0.3 µM (≈ 0.362 µg/mL) | significantly improved clearance | 2020 mL/min/kg | anti-tubercular activity (in words) [1]: slight reduction in activity |
| C=CCc1c(C)nc(-c2ccccn2)nc1O [PDPO-1] | 99% | 96% | 23 µM (≈ 5.23 µg/mL) | 2.8 µM |  |  |  |  |
